This series is described as follows: Human HepG2 cell viability assay in 384 well format. Format: toxicity, cell-based. Set-up: dose 125 nL, time 70.5 hour; cytotoxicity at 70.5 h: concentration not given beside the values. The note with it: HepG2 cells, read-out: Inhibition.

This passage reports cytotoxicity results from ChEMBL document CHEMBL3507680, “University of Dundee, Gates Library screen for HepG2 cell viability”.

As for `CC(C)C(NC(=O)c1ccco1)C(=O)N1CCC2(CC1)OCCO2` (stereo not drawn), the cytotoxicity at 70.5 h was 17.8%. For the molecule `COc1ccccc1CCNC(=O)NC(C)COCC(F)(F)F` (stereo not drawn), the cytotoxicity at 70.5 h was -5.34%. As for `N#Cc1cccc(NC(=O)N2CCCC(N3CCCC3=O)C2)c1` (stereo not drawn), the cytotoxicity at 70.5 h was found to be 0.781%.

Turning to `N#Cc1nccnc1NC1CCN(c2ccccc2Br)C1` (stereo not drawn), the cytotoxicity at 70.5 h came out at 11.1%. `Cn1cccc(NC(=O)COc2ccc(Cl)cc2)c1=O`: the cytotoxicity at 70.5 h was -1.21%. Turning to `COCC(C)NC(=O)NCCc1cccc(OC)c1O` (stereo not drawn), the cytotoxicity at 70.5 h came out at 8.57%. For `N#Cc1nccnc1NCCC1CCN(CC(F)(F)F)CC1` the value was 21.7%; for `FC(F)(F)CN1CCC(CCNc2ncccn2)CC1`, 0.447%; for `FC(F)c1nnc2ccc(N3CCC4(CCCCC4)C3)nn12`, -3.87%. Consider `CC(C)OCCS(=O)(=O)c1ccccc1C#N`, for which the cytotoxicity at 70.5 h was found to be 11.2%. Regarding `N#Cc1nccnc1NC1CCN(c2c(F)cccc2F)C1` (stereo not drawn), the cytotoxicity at 70.5 h is -4.72%. `COc1ccc2c(c1)C(=O)N(C)C1(CCN(C(=O)OC(C)(C)C)CC1)N2`: the cytotoxicity at 70.5 h stood at 1.71%. As for `NS(=O)(=O)CCN1CCOC(c2ccc(Cl)cc2)C1` (stereo not drawn), the cytotoxicity at 70.5 h was 2.97%. Consider `Cc1ccccc1S(=O)(=O)CCOC(C)C`, for which the cytotoxicity at 70.5 h was 9.57%. Regarding `CCCS(=O)(=O)CCN1CCOC(c2ccsc2)C1` (stereo not drawn), the cytotoxicity at 70.5 h is -2.47%. With `CCc1nnc2n1CCN(C(=O)c1ccccc1OCC1CC1)C2`, the cytotoxicity at 70.5 h was found to be 0.159%. To `Cc1c(C(=O)N(C)CC(C)O)sc2nc(C(F)(F)F)ccc12` (stereo not drawn) belongs -9.55%. Regarding `CCS(=O)(=O)NCCNC(=O)N(Cc1ccc(C)o1)C(C)C`, the cytotoxicity at 70.5 h is -13.2%. Turning to `COc1cccc2c1N(Cc1nc3c(cnn3C)c(=O)[nH]1)CCC2`, the cytotoxicity at 70.5 h is 22.2%. As to `Cn1ncc2c(=O)[nH]c(CN3CCCc4cc(F)cc(F)c43)nc21`, the cytotoxicity at 70.5 h is -15.9%. As for `CC(=O)N1Cc2ccccc2C[C@H]1C(=O)Nc1ccccn1`, the cytotoxicity at 70.5 h is -12%. In the case of `CCN(CC)Cc1ccc(C(=O)NC2CCc3cc(Br)ccc32)o1` (stereo not drawn), the cytotoxicity at 70.5 h was -24.6%. Consider `CCN(CC(=O)NCc1nc(C2CC2)no1)Cc1ccc(Cl)cc1`, for which the cytotoxicity at 70.5 h is -15.6%. To `Cc1cc(C2CCCN(CC(=O)N3CCc4ccccc43)C2)n[nH]1` (stereo not drawn) belongs -6.5%. Turning to `Cn1ccnc1CNCCNc1ncc(Cl)cc1Cl`, the cytotoxicity at 70.5 h was -5.95%.

On to `COc1ccc(C(NCc2cccc(O)c2)C2CC2)cc1` (stereo not drawn), for which the cytotoxicity at 70.5 h was determined as 16.8%.

As to `CC(C)OCCN1CCN(c2ccc(CN(C)C)cn2)CC1`, the cytotoxicity at 70.5 h came to 8.47%. `CN(C)C(=O)N1CCN(C(=O)c2ccc(Cl)c(Cl)c2)C(C)(C)C1`: the cytotoxicity at 70.5 h turned out to be 0.62%. On to `COc1ccc(CN(C)CC(=O)Nc2ccc3[nH]c(=O)[nH]c3c2)cc1F`, for which the cytotoxicity at 70.5 h was -8.14%.

Turning to `CN(CC(=O)c1ccc2[nH]c(=O)[nH]c2c1)Cc1ccc2c(c1)OCO2`, the cytotoxicity at 70.5 h is -3.13%. `COc1ccc(CN(C)CC(=O)c2ccc3[nH]c(=O)[nH]c3c2)cc1F`: the cytotoxicity at 70.5 h was -6.51%. In the case of `O=C(c1ccc(F)cc1F)N1CCN(C(=O)C2CCCCC2)CC1`, the cytotoxicity at 70.5 h is -5.82%.

`Cc1cn2nc(Sc3nnc(C(C)C)n3C)sc2n1`: the cytotoxicity at 70.5 h is -10.9%. Take `CCc1nnc(Sc2nn3cc(C)nc3s2)n1C`: the cytotoxicity at 70.5 h was -2.38%.

Regarding `CCOc1ccc(Cl)cc1NC(=O)N1CCC(n2cncn2)CC1`, the cytotoxicity at 70.5 h was -7.8%. Consider `CCOc1ccc(NC(=O)N2CCC(n3cncn3)CC2)cc1Cl`, for which the cytotoxicity at 70.5 h came to 19.7%. Turning to `O=C(c1occc1CN1C(=O)Cc2ccccc21)N1CCCCCC1`, the cytotoxicity at 70.5 h was -3.4%.

In the case of `O=C(c1cc(F)ccc1O)N1CCN(C2CCSC2)CC1` (stereo not drawn), the cytotoxicity at 70.5 h was -8.37%.

In the case of `O=C(c1occc1CN1C(=O)Cc2ccccc21)N1CC(O)C1`, the cytotoxicity at 70.5 h is -1.51%.

For the molecule `Cc1cc(C)cc(C(=O)N2CCN(C(=O)N(C)C)CC2(C)C)c1`, the cytotoxicity at 70.5 h is -0.125%. To `Cc1noc(CN2CCC(Cc3ccc(F)cc3)CC2)n1` belongs -9.61%. Take `CCN(C)C(=O)CCN(C)Cc1cnc(C)s1`: the cytotoxicity at 70.5 h is -0.298%. As to `COc1ccc(C2CCCN2Cc2cnn(C)c2)cc1` (stereo not drawn), the cytotoxicity at 70.5 h was -9.31%. For `CC(SCC(=O)N(C)CC(=O)NC1CC1)c1ccccc1F` (stereo not drawn) the value was -5.51%; for `COCCN1CCCN(C(=O)c2oc(C)nc2C)CC1`, -7.73%; for `CC(=O)NC(C(=O)N(C)Cc1nnc2n1CCC2)C(C)C` (stereo not drawn), 22.2%. `Cc1cnn(CC(C)NCC(=O)NCCc2cccs2)c1` (stereo not drawn): the cytotoxicity at 70.5 h is 10.8%. For the molecule `Brc1cccc(C2(CNCc3cc[nH]c3)CCOCC2)c1`, the cytotoxicity at 70.5 h was determined as 17.6%. As for `Cc1cc(C(C)NC(=O)c2ccc(O)nc2)c(C)o1` (stereo not drawn), the cytotoxicity at 70.5 h was 2.4%. For `Cc1oc(-c2cccs2)nc1C(=O)N(C)C1(C#N)CCC1` the value was -17.6%. For `CC(C(=O)N(C)Cc1nnc2n1CCC2)S(C)(=O)=O` (stereo not drawn) the value was -1.23%; for `CC(O)CN1CCC(CNCc2ccc(C#N)cc2)CC1` (stereo not drawn), 0.277%; for `CC(O)CN1CCC(CN(C)Cc2ccc(C(N)=O)cc2)CC1` (stereo not drawn), -9.95%.

Regarding `CCC(C)CS(=O)(=O)NC(=O)C1CC1` (stereo not drawn), the cytotoxicity at 70.5 h is -5.06%. For `OCCn1nnnc1Cc1ccc(Br)cc1` the value was -6.7%; for `CCc1cnc(N2CCN(Cc3ccno3)CC2)s1`, -1.37%.

Turning to `Cc1ccc(CN(C)C)cc1NC(=O)C1CC=CC1`, the cytotoxicity at 70.5 h was -3.31%. Turning to `Cc1cc(C(C)NC(=O)c2c[nH]c(=O)c(Cl)c2)c(C)o1` (stereo not drawn), the cytotoxicity at 70.5 h is -1.21%. With `CC(O)CN1CCC(CN(C)Cc2cccc(C#N)c2)CC1` (stereo not drawn), the cytotoxicity at 70.5 h is -2.33%. For `CC(O)CN1CCC(CN(C)Cc2ccc(C#N)cc2F)CC1` (stereo not drawn), the cytotoxicity at 70.5 h was found to be 6.92%. To `CC(C)OCCCNC(=O)N(C)C(C)c1ccc(-n2cncn2)cc1` (stereo not drawn) belongs -6.64%; to `CC(CNC(=O)NCc1ccsc1)CC1(C)OCCO1` (stereo not drawn), -8.79%; to `Cc1cccnc1CSCCCNS(C)(=O)=O`, -5.33%. For `CC(O)CN1CCC(CN(C)Cc2ccc(C#N)cc2)CC1` (stereo not drawn), the cytotoxicity at 70.5 h was -11%. For `Clc1nc2ccccn2c1CNCC1CN(C2CC2)CCO1` (stereo not drawn), the cytotoxicity at 70.5 h came to 4.07%. Regarding `N#Cc1ccc(CNc2cnn(CCN3CCOCC3)c2)cc1`, the cytotoxicity at 70.5 h amounted to 42.1%.

For `Cc1cc(C(=O)O)c2c(Br)cccc2n1`, the cytotoxicity at 70.5 h was -13.5%.

As to `Cc1noc(C)c1CN(C)C(=O)CCn1c(=O)n(C)c2ccccc21`, the cytotoxicity at 70.5 h is -12.2%. In the case of `CN(C(=O)c1ccc(S(=O)(=O)NC(C)(C)C)cc1)C1(C#N)CCC1`, the cytotoxicity at 70.5 h is -17.4%. To `Cc1cc2ccccc2n1CC(=O)Nc1ccnn1CC1CCOC1` (stereo not drawn) belongs -14.7%; to `CCC(C)NS(=O)(=O)c1ccc(C(=O)N(C)C2(C#N)CCC2)cc1` (stereo not drawn), -23.6%; to `O=C(COc1ccc2c(c1)CCC2)N1CCCC1c1ccc[nH]1` (stereo not drawn), -23.1%. `Cc1noc(C)c1CN(C)Cn1c(=O)n(C)c2ccccc21`: the cytotoxicity at 70.5 h was -6.45%.

Turning to `NC(=O)C1CCN(C(=O)Cn2nc(-c3ccccc3)oc2=O)C1` (stereo not drawn), the cytotoxicity at 70.5 h is -5.69%.

For the molecule `CCc1nc(CN2CCN(c3ncnc4cc(F)ccc34)CC2)no1`, the cytotoxicity at 70.5 h turned out to be 24.8%. Take `CC(C)C1CN(C(=O)c2ccc(C(N)=O)cc2)CCS1` (stereo not drawn): the cytotoxicity at 70.5 h was -6%.

As for `O=C(NC1(c2cccc(F)c2)CCOCC1)c1cc[nH]n1`, the cytotoxicity at 70.5 h is -4.33%. To `CC(C)C1CN(C(=O)c2nccnc2N)CCS1` (stereo not drawn) belongs -4.8%; to `CC(C)(C)OC(=O)N1CCCc2ccc(NCc3ncc[nH]3)cc21`, 9.84%. On to `O=C(NC1CCCC1)NC1CCC(C(=O)N2CCSCC2)CC1` (stereo not drawn), for which the cytotoxicity at 70.5 h was -9.08%.

Take `Cc1cccc(S(=O)(=O)NCC(C)N2CCN(C)CC2)c1Cl` (stereo not drawn): the cytotoxicity at 70.5 h was -1.95%. `O=C(C(CNCc1ccsc1)c1ccccc1)N1CCOCC1` (stereo not drawn): the cytotoxicity at 70.5 h was -2.8%.

Regarding `COCCc1noc(CNC2CCCN(c3cccnn3)C2)n1` (stereo not drawn), the cytotoxicity at 70.5 h came out at 11%. Regarding `Cc1n[nH]cc1CNc1ccc2c(c1)CN(C(=O)OC(C)(C)C)CC2`, the cytotoxicity at 70.5 h is -6.16%. For `CN(Cc1ccc(N2CCCCC2)cc1)Cc1noc(C(C)(C)C)n1`, the cytotoxicity at 70.5 h is -9.02%.

Consider `CC(O)CN1CCN(Cc2csc(-c3ncccn3)n2)CC1` (stereo not drawn), for which the cytotoxicity at 70.5 h amounted to 5.33%.

`Cc1n[nH]c(C2CN(C(=O)CCc3ccco3)CCO2)n1` (stereo not drawn): the cytotoxicity at 70.5 h turned out to be 9.82%.

As to `COc1cc(C(=O)N(Cc2ccc(F)cc2)C2CC2)cc2c1OCCO2`, the cytotoxicity at 70.5 h came out at 17.8%.

Consider `Cc1ccsc1CN(C)C(=O)Cn1nc(-c2ccc(F)cc2)oc1=O`, for which the cytotoxicity at 70.5 h is 4.04%. Regarding `CN(Cc1ccc(F)cc1)C(=O)Cn1nc(-c2ccc(F)cc2)oc1=O`, the cytotoxicity at 70.5 h was found to be 26.3%.

`CN(Cc1ccccc1Br)C(=O)Cn1nc(-c2ccc(F)cc2)oc1=O`: the cytotoxicity at 70.5 h is -8.06%. For the molecule `O=C(COc1cccc2c1CCC2=O)NCCSc1ccccc1`, the cytotoxicity at 70.5 h worked out at 3.81%. As for `COc1ccc(CS(=O)(=O)CC(=O)NCC2CC2)cc1F`, the cytotoxicity at 70.5 h is -3.56%. To `O=C(Cc1c[nH]c2ccccc12)N1CCN(C(=O)c2ccoc2)CC1` belongs 1.6%; to `CC(CN1CCOCC1)NC(=O)NCc1ccc(Cl)s1` (stereo not drawn), -7.44%; to `CCOCCCC(=O)NCc1cn2cc(Br)ccc2n1`, -3.96%. Regarding `COc1ccc(-c2nnc(SCC(=O)NCC(C)C)[nH]2)c(OC)c1`, the cytotoxicity at 70.5 h is -7.35%. As to `CCc1cc(NCc2ccccc2CN2CCCC2)n2ncnc2n1`, the cytotoxicity at 70.5 h came to 29.1%. As to `CCc1cc(NCC(O)CN2CCCCC2)n2ncnc2n1` (stereo not drawn), the cytotoxicity at 70.5 h was 1.39%. To `COC(=O)[C@H](C)NC(=O)c1cc(-c2cccc(Cl)c2)no1` belongs 2%; to `CS(=O)(=O)N1CCc2c(cccc2NC(=O)CC(F)(F)F)C1`, -1.76%. To `Brc1ccc(CNCc2nnc3n2CCCCC3)s1` belongs -16.6%; to `Fc1cccc(-c2c[nH]c(C3CCCN3)n2)c1` (stereo not drawn), 0.492%.
